{
  "source": "patent US20050074834A1",
  "about": "(priority 2001, published 2005)",
  "key": {"[1]": {"tested_on": "chromatophore/neuronal cell", "format": "cell-based"}, "[2]": {"tested_on": "chromatophores"}, "[3]": {"tested_on": "chromatophore/fungal cell", "format": "cell-based"}, "[4]": {"tested_on": "chromatophores", "format": "cell-based"}, "[5]": {"tested_on": "chromatophores", "assay": "cells", "conditions": "read-out: Threshold concentration PPM"}, "[6]": {"tested_on": "chromatophore/protozoal cell", "format": "cell-based"}, "[7]": {"tested_on": "fish chromatophores", "format": "cell-based"}, "[8]": {"tested_on": "xanthophores", "format": "cell-based"}, "[9]": {"tested_on": "iridophores", "format": "cell-based"}, "[10]": {"tested_on": "melanophores", "format": "cell-based"}, "[11]": {"tested_on": "erythrophores", "format": "cell-based"}, "[12]": {"tested_on": "chromatophore/bacterial cell", "format": "cell-based"}, "[13]": {"tested_on": "Betta chromatophores", "format": "cell-based, Betta splendens"}, "[14]": {"tested_on": "Hemichromis bimaculatus chromatophores", "format": "cell-based"}, "[15]": {"tested_on": "Betta chromatophores", "format": "cell-based"}, "[16]": {"tested_on": "Betta splendens chromatophores", "format": "cell-based"}, "[17]": {"tested_on": "Betta splendens erythrophores", "format": "cell-based"}, "[18]": {"tested_on": "ryanodine receptors", "conditions": "cited from earlier work"}},
  "note": "Entries after “also recorded” stand apart in the source; their conditions may differ. Structures can show the parent of a compound that is named as a salt.",
  "data": [
    {"compound": "Nc1ncnc2c1ncn2[C@@H]1O[C@H](COP(=O)(O)OP(=O)(O)OP(=O)(O)O)[C@@H](O)[C@H]1O", "note": "[ATP]", "values": [
      {"measurement": "2-Cell Cytosensor (second cell type included)", "setting": "[1]", "result": "Erythr. Aggr."},
      {"measurement": "Threshold concentration PPM", "setting": "[2]", "result": "X (key: X=1 to 100 PPM; XX=100 to 1000 PPM)"}
    ]},
    {"compound": "C[C@@H]1[C@H](O)[C@@H](C)/C=C/C=C/C=C/C=C/C=C/C=C/C=C/[C@H](O[C@@H]2O[C@H](C)[C@@H](O)[C@H](N)[C@@H]2O)C[C@@H]2O[C@](O)(C[C@@H](O)C[C@@H](O)[C@H](O)CC[C@@H](O)C[C@@H](O)CC(=O)O[C@H]1C)C[C@H](O)[C@H]2C(=O)O", "note": "[Amphotericin B]", "values": [
      {"measurement": "2-Cell Cytosensor (second cell type included)", "setting": "[3]", "result": "Normal"},
      {"measurement": "Response time Hr.", "setting": "[2]", "result": "XX (key: X=1-6 hr; XX=6-24 hr)"},
      {"measurement": "Threshold concentration PPM", "setting": "[2]", "result": "X (key: X=1 to 100 PPM; XX=100 to 1000 PPM)"}
    ]},
    {"compound": "Cn1c(=O)c2c(ncn2C)n(C)c1=O", "note": "[Caffeine]", "values": [
      {"measurement": "concentration printed for an analyte to which chromatophores respond", "setting": "[4]", "result": 100, "unit": "µM"},
      {"measurement": "Threshold concentration PPB", "setting": "[2]", "result": "XXX"}
    ]},
    {"compound": "C[N+](C)(C)CCOC(N)=O", "note": "[Carbachol]", "values": [
      {"measurement": "2-Cell Cytosensor (second cell type included)", "setting": "[1]", "result": "Erythr. Aggr."},
      {"measurement": "minimal effective concentration", "setting": "[5]", "result": "1 to 100", "unit": "µg/mL"}
    ]},
    {"compound": "CCN(CC)CCCC(C)Nc1ccnc2cc(Cl)ccc12", "note": "(centres unmarked) [Chloroquine]", "values": [
      {"measurement": "2-Cell Cytosensor (second cell type included)", "setting": "[6]", "result": "Normal"},
      {"measurement": "Response time Hr.", "setting": "[2]", "result": "XX (key: X=1-6 hr; XX=6-24 hr)"},
      {"measurement": "minimal effective concentration", "setting": "[5]", "result": "100 to 1000", "unit": "µg/mL"}
    ]},
    {"compound": "Clc1cccc(Cl)c1N=C1NCCN1", "note": "[Clonidine]", "values": [
      {"measurement": "Threshold concentration PPB", "setting": "[2]", "result": "XX (key: X=1 to 100 PPB; XX=100 to 1000 PPB)"},
      {"measurement": "chromatophore response after forskolin and PMSF", "setting": "[7]", "result": "no aggregation occurred"},
      {"measurement": "chromatophore response in the absence of forskolin", "setting": "[7]", "result": "aggregate; also recorded: aggregation"},
      {"measurement": "chromatophore response in the presence of forskolin", "setting": "[7]", "result": "unresponsive; also recorded: not detectable"},
      {"measurement": "Chromatophore response Xanthophores", "setting": "[8]", "result": "Disp."}
    ]},
    {"compound": "C=C[C@@]1(C)CC(=O)[C@]2(O)[C@@]3(C)[C@@H](O)CCC(C)(C)[C@@H]3[C@H](O)[C@H](OC(C)=O)[C@@]2(C)O1", "note": "[Forskolin]", "values": [
      {"measurement": "concentration printed for an analyte to which chromatophores respond", "setting": "[4]", "result": 0.01, "unit": "µM"},
      {"measurement": "Threshold concentration PPB", "setting": "[2]", "result": "XX (key: X=1 to 100 PPB; XX=100 to 1000 PPB)"}
    ]},
    {"compound": "Cc1ncc([N+](=O)[O-])n1CCO", "note": "[Metronidazole]", "values": [
      {"measurement": "2-Cell Cytosensor (second cell type included)", "setting": "[6]", "result": "Normal"},
      {"measurement": "Response time Hr.", "setting": "[2]", "result": "XX (key: X=1-6 hr; XX=6-24 hr)"},
      {"measurement": "minimal effective concentration", "setting": "[5]", "result": "1 to 100", "unit": "µg/mL"}
    ]},
    {"compound": "COC(=O)C=C(C)OP(=O)(OC)OC", "note": "[Mevinphos]", "values": [
      {"measurement": "Chromatophore response Iridophores", "setting": "[9]", "result": "Hue change, then Imp."},
      {"measurement": "Response time Hr.", "setting": "[2]", "result": "X (key: X=1-6 hr; XX=6-24 hr)"},
      {"measurement": "Chromatophore response Melanophores", "setting": "[10]", "result": "Imp."},
      {"measurement": "Chromatophore response Erythrophores", "setting": "[11]", "result": "Imp. (FS)"}
    ]},
    {"compound": "CCn1cc(C(=O)O)c(=O)c2ccc(C)nc21", "note": "[Nalidixic acid]", "values": [
      {"measurement": "Response time Hr.", "setting": "[2]", "result": "XX (key: X=1-6 hr; XX=6-24 hr)"},
      {"measurement": "2-Cell Cytosensor (second cell type included)", "setting": "[12]", "result": "Normal"},
      {"measurement": "minimal effective concentration", "setting": "[5]", "result": "1 to 100", "unit": "µg/mL"}
    ]},
    {"compound": "c1ccc2c(CC3=NCCN3)cccc2c1", "note": "[Naphazoline]", "values": [
      {"measurement": "Threshold concentration PPB", "setting": "[2]", "result": "XX (key: X=1 to 100 PPB; XX=100 to 1000 PPB)"},
      {"measurement": "Chromatophore response Xanthophores", "setting": "[8]", "result": "Disp."}
    ]},
    {"compound": "NC[C@H](O)c1ccc(O)c(O)c1", "note": "[Norepinephrine]", "values": [
      {"measurement": "response time of the cytosensor", "setting": "[13]", "result": "less than 1 minute"},
      {"measurement": "change of appearance of Hemichromis bimaculatus chromatophores", "setting": "[14]", "result": "change the appearance"},
      {"measurement": "Chromatophore response Iridophores", "setting": "[9]", "result": "Hue changes (FS)"},
      {"measurement": "Chromatophore response Xanthophores", "setting": "[8]", "result": "Disp."},
      {"measurement": "appearance of Betta chromatophores after exposure", "setting": "[15]", "result": "aggregation of chromatophore pigment is apparent"}
    ]},
    {"compound": "Cc1cc(C(C)(C)C)c(O)c(C)c1CC1=NCCN1", "note": "[Oxymetazoline]", "values": [
      {"measurement": "Threshold concentration PPB", "setting": "[2]", "result": "XX (key: X=1 to 100 PPB; XX=100 to 1000 PPB)"},
      {"measurement": "Chromatophore response Xanthophores", "setting": "[8]", "result": "Disp."}
    ]},
    {"compound": "CCOP(=O)(OCC)Oc1ccc([N+](=O)[O-])cc1", "note": "[Paraoxon]", "values": [
      {"measurement": "Chromatophore response Iridophores", "setting": "[9]", "result": "Hue changes (FS)"},
      {"measurement": "Chromatophore response Melanophores", "setting": "[10]", "result": "A/I (FS)"},
      {"measurement": "Chromatophore response Erythrophores", "setting": "[11]", "result": "Aggr. (FS)"}
    ]},
    {"compound": "C=C[C@H]1C[N@@]2CC[C@H]1C[C@H]2[C@H](O)c1ccnc2ccc(OC)cc12", "note": "[Quinine sulfate]", "values": [
      {"measurement": "2-Cell Cytosensor (second cell type included)", "setting": "[6]", "result": "Normal"},
      {"measurement": "Response time Hr.", "setting": "[2]", "result": "XX (key: X=1-6 hr; XX=6-24 hr)"},
      {"measurement": "minimal effective concentration", "setting": "[5]", "result": "100 to 1000", "unit": "µg/mL"}
    ]},
    {"compound": "[H]/N=C(/N)N[C@H]1[C@H](O)[C@@H](O)[C@H](O[C@@H]2O[C@@H](C)[C@](O)(C=O)[C@H]2O[C@@H]2O[C@@H](CO)[C@H](O)[C@@H](O)[C@@H]2NC)[C@@H](N/C(N)=N\\[H])[C@@H]1O", "note": "[Streptomycin]", "values": [
      {"measurement": "Response time Hr.", "setting": "[2]", "result": "XX (key: X=1-6 hr; XX=6-24 hr)"},
      {"measurement": "2-Cell Cytosensor (second cell type included)", "setting": "[12]", "result": "Normal"},
      {"measurement": "minimal effective concentration", "setting": "[5]", "result": "1 to 100", "unit": "µg/mL"}
    ]},
    {"compound": "c1ccc2c(c1)CCCC2C1=NCCN1", "note": "(centres unmarked) [Tetrahydrozoline]", "values": [
      {"measurement": "Threshold concentration PPB", "setting": "[2]", "result": "XX (key: X=1 to 100 PPB; XX=100 to 1000 PPB)"},
      {"measurement": "Chromatophore response Xanthophores", "setting": "[8]", "result": "Disp."}
    ]},
    {"compound": "Cholera toxin", "values": [
      {"measurement": "concentration at which inhibition of norepinephrine induced pigment aggregation is detected", "setting": "[16]", "result": "≥ 1", "unit": "ng/mL"},
      {"measurement": "effect on Betta splendens chromatophores", "setting": "[16]", "result": "causes hyperdispersion"},
      {"measurement": "change of appearance of Hemichromis bimaculatus chromatophores", "setting": "[14]", "result": "change the appearance"},
      {"measurement": "erythrophore response upon norepinephrine exposure", "setting": "[14]", "result": "impaired"},
      {"measurement": "melanophore response upon challenge by norepinephrine", "setting": "[14]", "result": "unimpaired"},
      {"measurement": "Response time Hr.", "setting": "[2]", "result": "X (key: X=1-6 hr; XX=6-24 hr)"},
      {"measurement": "Threshold concentration PPM", "setting": "[2]", "result": "X (key: X=1 to 100 PPM; XX=100 to 1000 PPM)"},
      {"measurement": "Chromatophore response Erythrophores", "setting": "[11]", "result": "Imp."},
      {"measurement": "chromatophore appearance after exposure", "setting": "[15]", "result": "Pigment aggregation is evident"},
      {"measurement": "pigment aggregation in response to norepinephrine after pre-incubation with CTX", "setting": "[15]", "result": "impaired pigment aggregation in response to NE"},
      {"measurement": "selective sensitivity of color classes of chromatophores", "setting": "[15]", "result": "selective sensitivity of erythrophores to cholera toxin"}
    ]},
    {"compound": "Penicillin", "values": [
      {"measurement": "Response time Hr.", "setting": "[2]", "result": "XX (key: X=1-6 hr; XX=6-24 hr)"},
      {"measurement": "Threshold concentration PPM", "setting": "[2]", "result": "X (key: X=1 to 100 PPM; XX=100 to 1000 PPM)"},
      {"measurement": "2-Cell Cytosensor (second cell type included)", "setting": "[12]", "result": "Normal"}
    ]},
    {"compound": "Ryanodine", "values": [
      {"measurement": "Morphology Effect: Aggregation", "setting": "[17]", "result": "Yes and No"},
      {"measurement": "Morphology Effect: Dispersion", "setting": "[17]", "result": "No"},
      {"measurement": "Threshold concentration PPB", "setting": "[2]", "result": "XX (key: X=1 to 100 PPB; XX=100 to 1000 PPB)"},
      {"measurement": "concentrations at which ryanodine acts as an antagonist of the same receptors", "setting": "[18]", "result": "> 1", "unit": "µM"},
      {"measurement": "Chromatophore response Erythrophores", "setting": "[11]", "result": "Aggr."}
    ]}
  ]
}
